Results reported in patent publication US20250171461A1, “STIMULATOR OF INTERFERON GENES (STING) MODULATORS, AND COMPOSITIONS AND METHODS THEREOF” (Geode Therapeutics Inc., priority 2022, published 2025).

These molecules were tested against T1, hERG channel (Homo sapiens, UniProt Q12809) (assay: hERG safety evaluation, manual whole cell patch clamp in hERG-expressing HEK 293 cells). Conditions: hERG stably expressed HEK 293 cells, tail current, whole cell recording.
T1 construct: host or cells: HEK 293
Format: cell-based
Protocol: (1) hERG stably expressed HEK 293 cell line (#60187) was purchased from BPS Bioscience and P3-P20 were used for the study. Cells were cultured in medium containing: 90% MEM, 10% FBS, 0.1 mM NEAA, 100 U/mL Penicillin-Streptomycin, 1 mM Na pyruvate and 500 μg/mL Geneticin. Cells are split about three times a week, and maintained between ˜40% to ˜80% confluence. 24 to 48 hours prior to recordings, the cells were plated on 0.05 mg/mL PDL pre-coated glass cover slips placed in 48-well plate at 1×10^4 cells. (2) The number of cells being plated on the cover slip should reach a confluence rate at which majority of the cells are single. (1) Test compounds were initially prepared in DMSO with final concentration of 10 mM as stock solution. (2) Compound was first made into 10, 3, 1, 0.3 and 0.1 mM DMSO stock, then serial diluted into the desired test concentrations in the extracellular solution (ECs). 30 uM test solution was diluted from 10 mM DMSO stock. The final DMSO concentration was in range of 0.1-0.3%. HEKA EPC 10 USB patch clamp amplifier (from HEKA Elektronik, Germany) was used in the whole cell recording. A cover slip with plenty of single HEK293 hERG cells on the surface was removed and placed into a continuously perfused (approximately 1 ml/minute) recording chamber mounted on an inverted microscope. HERG channel currents were recorded from single cells using standard whole cell recording techniques. The cells were voltage clamped at a holding potential of −80 mV. Then hERG current was activated by depolarizing at +30 mV for 5000 ms, after which the current was taken back to −50 mV for 5000 ms to remove the inactivation and observe the deactivating tail current. The K+ tail current through HERG channels observed during this step was allowed to stabilize under continuous bath perfusion. Cells were then superfused with drug until steady state block was achieved. Steady state was considered reached when three consecutive super-imposable current records were collected. At this point, cells were once again superfused with extracellular solution until the current amplitude returned to values close to those measured before application of drug. (1) Percent current inhibition was calculated using the following equation. (Note: PatchMaster was used to extract the peak current from the original data.) (2) The dose response curve of test compounds was plotted with % inhibition against the concentration of test compounds using Graphpad Prism 9.0, and fit the data to a log(inhibitor) vs. response—Variable slope curve.

T1 sequence (Q12809 whole entry): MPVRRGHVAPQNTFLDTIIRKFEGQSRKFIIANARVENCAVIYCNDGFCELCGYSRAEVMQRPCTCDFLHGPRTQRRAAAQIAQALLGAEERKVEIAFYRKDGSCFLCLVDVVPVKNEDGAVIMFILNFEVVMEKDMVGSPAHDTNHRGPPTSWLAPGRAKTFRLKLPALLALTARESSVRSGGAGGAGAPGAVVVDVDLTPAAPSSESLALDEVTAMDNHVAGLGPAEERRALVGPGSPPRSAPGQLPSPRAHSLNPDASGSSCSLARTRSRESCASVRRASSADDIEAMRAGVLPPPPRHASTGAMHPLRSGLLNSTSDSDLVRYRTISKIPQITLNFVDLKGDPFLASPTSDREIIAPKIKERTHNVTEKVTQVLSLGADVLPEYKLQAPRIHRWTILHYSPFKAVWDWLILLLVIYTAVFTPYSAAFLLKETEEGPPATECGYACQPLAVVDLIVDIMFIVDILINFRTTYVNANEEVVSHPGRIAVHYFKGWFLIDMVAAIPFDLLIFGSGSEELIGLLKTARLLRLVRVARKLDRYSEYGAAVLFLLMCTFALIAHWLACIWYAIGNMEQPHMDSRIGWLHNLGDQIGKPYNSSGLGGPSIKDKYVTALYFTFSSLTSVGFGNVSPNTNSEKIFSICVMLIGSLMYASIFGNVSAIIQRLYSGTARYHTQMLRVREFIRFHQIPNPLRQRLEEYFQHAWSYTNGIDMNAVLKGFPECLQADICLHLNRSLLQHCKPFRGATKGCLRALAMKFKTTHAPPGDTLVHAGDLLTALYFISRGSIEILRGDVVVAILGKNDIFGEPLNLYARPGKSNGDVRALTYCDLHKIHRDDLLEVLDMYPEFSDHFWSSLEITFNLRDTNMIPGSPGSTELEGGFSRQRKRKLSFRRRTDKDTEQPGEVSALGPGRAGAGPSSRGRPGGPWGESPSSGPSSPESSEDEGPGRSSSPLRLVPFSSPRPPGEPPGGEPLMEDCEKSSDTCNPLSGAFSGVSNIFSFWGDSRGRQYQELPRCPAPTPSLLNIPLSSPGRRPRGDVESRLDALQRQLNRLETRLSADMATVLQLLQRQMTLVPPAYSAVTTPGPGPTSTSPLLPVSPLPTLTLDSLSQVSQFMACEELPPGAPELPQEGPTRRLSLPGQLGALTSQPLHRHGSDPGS

For COc1cc(CN(Cc2cn3c4c(c(F)c(F)cc4c2=O)OCC3C)[C@H]2CCCN(c3ccc(N)nc3)C2)ccn1 (stereo partly drawn) [Compound 1, 6-((((S)-1-(6-aminopyridin-3-yl)piperidin-3-yl)((2-methoxypyridin-4-yl)methyl)amino)methyl)-9,10-difluoro-3-methyl-2H-[1,4]oxazino[2,3,4-ij]quinolin-7(3H)-one], which IC50 is on record?
Its IC50 is 1.58 µM.

Which IC50 does the source give for COc1cc(CN(Cc2cn3c4c(c(N5CCN(C)CC5)c(F)cc4c2=O)OCC3C)[C@H]2CCCN(c3ccc(N)nc3)C2)ccn1 (stereo partly drawn) [Compound 29, 6-((((S)-1-(6-aminopyridin-3-yl)piperidin-3-yl)((2-methoxypyridin-4-yl)methyl)amino)methyl)-9-fluoro-3-methyl-10-(4-methylpiperazin-1-yl)-2H-[1,4]oxazino[2,3,4-ij]quinolin-7(3H)-one] here?
Its IC50 is 34.1 µM.

Each molecule was assayed against T2, human HAQ STING isoform (hSTING HAQ) (Homo sapiens, UniProt Q86WV6, G230A/H232R/R293Q/R71H) (assay: IFN-β mRNA level in THP1 cells (qPCR, STING agonist cellular activity)). Conditions: compound at 3.6 μM, 2 hrs, IFNβ expression normalized against GAPDH by the 2^-ΔΔCT method, DMSO = 1.0.
T2 construct: THP1 cells express the naturally occurring human HAQ STING isoform (hSTING HAQ); host or cells: THP1
Format: cell-based
Summary of the method: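 THP1 cells were seeded at 9×10^5 per well, incubated overnight, then treated with compound at 3.6 μM final (0.1% DMSO control) for 2 hrs at 37 °C. IFN-β mRNA was measured by SYBR Green qPCR, normalised to GAPDH by the 2^−ΔΔCT method, in triplicate.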

T2 sequence (Q86WV6 whole entry R71H/G230A/H232R/R293Q, canonical isoform): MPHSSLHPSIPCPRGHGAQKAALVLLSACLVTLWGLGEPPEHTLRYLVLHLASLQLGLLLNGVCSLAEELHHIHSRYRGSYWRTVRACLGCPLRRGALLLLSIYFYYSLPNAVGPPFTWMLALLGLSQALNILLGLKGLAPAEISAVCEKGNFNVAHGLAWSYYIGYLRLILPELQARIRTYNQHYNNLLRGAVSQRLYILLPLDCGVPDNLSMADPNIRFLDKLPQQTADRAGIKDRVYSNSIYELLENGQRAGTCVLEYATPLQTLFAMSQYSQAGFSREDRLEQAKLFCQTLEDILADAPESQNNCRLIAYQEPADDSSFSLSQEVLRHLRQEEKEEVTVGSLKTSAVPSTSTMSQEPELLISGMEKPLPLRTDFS

With COc1cc(CN(Cc2cn3c4c(c(F)c(F)cc4c2=O)OCC3C)[C@H]2CCCN(c3ccc(N)nc3)C2)ccn1 (stereo partly drawn) [Compound 1, 6-((((S)-1-(6-aminopyridin-3-yl)piperidin-3-yl)((2-methoxypyridin-4-yl)methyl)amino)methyl)-9,10-difluoro-3-methyl-2H-[1,4]oxazino[2,3,4-ij]quinolin-7(3H)-one] as the molecule, how does the “Relative mRNA INFβ/GAPDH THP 1” value read?
Its value is 447.9.

With COc1cc(CN(Cc2cn3c4c(c(N5CCN(C)CC5)c(F)cc4c2=O)OCC3C)[C@H]2CCCN(c3ccc(N)nc3)C2)ccn1 (stereo partly drawn) [Compound 29, 6-((((S)-1-(6-aminopyridin-3-yl)piperidin-3-yl)((2-methoxypyridin-4-yl)methyl)amino)methyl)-9-fluoro-3-methyl-10-(4-methylpiperazin-1-yl)-2H-[1,4]oxazino[2,3,4-ij]quinolin-7(3H)-one] as the molecule, how does the “Relative mRNA INFβ/GAPDH THP 1” value read?
The value was 3330.1.

Which “Relative mRNA INFβ/GAPDH THP 1” value does the source give for COC(=O)c1cc(CN(Cc2cn3c4c(c(F)c(F)cc4c2=O)OCC3)[C@H]2CCCN(c3cnccn3)C2)ccn1 [Compound 88, methyl (S)-4-((((9,10-difluoro-7-oxo-2,3-dihydro-7H-[1,4]oxazino[2,3,4-ij]quinolin-6-yl)methyl)(1-(pyrazin-2-yl)piperidin-3-yl)amino)methyl)picolinate] here?
Its value is 0.8.

With N#Cc1cc(CN(Cc2cn3c4c(c(F)c(F)cc4c2=O)OCC3)[C@H]2CCCN(c3cnccn3)C2)ccn1 [Compound 89, (S)-4-((((9,10-difluoro-7-oxo-2,3-dihydro-7H-[1,4]oxazino[2,3,4-ij]quinolin-6-yl)methyl)(1-(pyrazin-2-yl)piperidin-3-yl)amino)methyl)picolinonitrile] as the molecule, how does the “Relative mRNA INFβ/GAPDH THP 1” value read?
The value was 1.3.

CCOc1cc(CN(Cc2cn3c4c(c(F)c(F)cc4c2=O)OCC3)[C@H]2CCCN(c3cnccn3)C2)ccn1 [Compound 90, (S)-6-((((2-ethoxypyridin-4-yl)methyl)(1-(pyrazin-2-yl)piperidin-3-yl)amino)methyl)-9,10-difluoro-2,3-dihydro-7H-[1,4]oxazino[2,3,4-ij]quinolin-7-one] was tested. Which “Relative mRNA INFβ/GAPDH THP 1” value did it give?
The value was 1.7.

Which “Relative mRNA INFβ/GAPDH THP 1” value does the source give for CNC(=O)c1cc(CN(Cc2cn3c4c(c(F)c(F)cc4c2=O)OCC3)[C@H]2CCCN(c3cnccn3)C2)ccn1 [Compound 91, (S)-4-((((9,10-difluoro-7-oxo-2,3-dihydro-7H-[1,4]oxazino[2,3,4-ij]quinolin-6-yl)methyl)(1-(pyrazin-2-yl)piperidin-3-yl)amino)methyl)-N-methylpicolinamide] here?
The value was 1.0.

For NC(=O)c1cc(CN(Cc2cn3c4c(c(F)c(F)cc4c2=O)OCC3)[C@H]2CCCN(c3cnccn3)C2)ccn1 [Compound 92, (S)-4-((((9,10-difluoro-7-oxo-2,3-dihydro-7H-[1,4]oxazino[2,3,4-ij]quinolin-6-yl)methyl)(1-(pyrazin-2-yl)piperidin-3-yl)amino)methyl)picolinamide], which “Relative mRNA INFβ/GAPDH THP 1” value is on record?
Its value is 1.1.

CCN1CCN(c2c(F)cc3c(=O)c(CN(Cc4ccnc(OC)c4)[C@H]4CCCN(c5ccc(N)nc5)C4)cn4c3c2OCC4)CC1 [Compound 93, (S)-6-(((1-(6-aminopyridin-3-yl)piperidin-3-yl)((2-methoxypyridin-4-yl)methyl)amino)methyl)-10-(4-ethylpiperazin-1-yl)-9-fluoro-2,3-dihydro-7H-[1,4]oxazino[2,3,4-ij]quinolin-7-one] was tested. Which “Relative mRNA INFβ/GAPDH THP 1” value did it give?
Its value is 411.3.

With COc1cc(CN(Cc2cn3c4c(c(N5CCN(C)CC5)c(F)cc4c2=O)OCC3)[C@H]2CCCN(c3ccc(N)nc3)C2)ccn1 [Compound 94, (S)-6-(((1-(6-aminopyridin-3-yl)piperidin-3-yl)((2-methoxypyridin-4-yl)methyl)amino)methyl)-9-fluoro-10-(4-methylpiperazin-1-yl)-2,3-dihydro-7H-[1,4]oxazino[2,3,4-ij]quinolin-7-one] as the molecule, how does the “Relative mRNA INFβ/GAPDH THP 1” value read?
Its value is 248.8.

Which “Relative mRNA INFβ/GAPDH THP 1” value does the source give for Cc1cncc(CN(Cc2cn3c4c(c(N5CCN(C)CC5)c(F)cc4c2=O)OCC3)[C@@H]2CCCN(c3cnccn3)C2)c1 [Compound 95, (R)-9-fluoro-10-(4-methylpiperazin-1-yl)-6-((((5-methylpyridin-3-yl)methyl)(1-(pyrazin-2-yl)piperidin-3-yl)amino)methyl)-2,3-dihydro-7H-[1,4]oxazino[2,3,4-ij]quinolin-7-one] here?
Its value is 1.2.

For COc1cc(CN(Cc2cn3c4c(c(N5CCN(C)CC5)c(F)cc4c2=O)OCC3C(C)C)[C@H]2CCCN(c3ccc(N)nc3)C2)ccn1 (stereo partly drawn) [Compound 96, 6-((((S)-1-(6-aminopyridin-3-yl)piperidin-3-yl)((2-methoxypyridin-4-yl)methyl)amino)methyl)-9-fluoro-3-isopropyl-10-(4-methylpiperazin-1-yl)-2,3-dihydro-7H-[1,4]oxazino[2,3,4-ij]quinolin-7-one], which “Relative mRNA INFβ/GAPDH THP 1” value is on record?
The value was 451.1.

Which “Relative mRNA INFβ/GAPDH THP 1” value does the source give for Cc1cc(CN(Cc2cn3c4c(c(F)c(F)cc4c2=O)SCC3)[C@H]2CCCN(c3cnccn3)C2)ccn1 [Compound 97, (S)-9,10-difluoro-6-((((2-methylpyridin-4-yl)methyl)(1-(pyrazin-2-yl)piperidin-3-yl)amino)methyl)-2,3-dihydro-7H-[1,4]thiazino[2,3,4-ij]quinolin-7-one] here?
The value was 1.0.

For COc1cc(CN(Cc2cn3c4c(c(F)c(F)cc4c2=O)SCC3)[C@H]2CCCN(c3ccc(NCC4CC4)nc3)C2)ccn1 [Compound 98, (S)-6-(((1-(6-((cyclopropylmethyl)amino)pyridin-3-yl)piperidin-3-yl)((2-methoxypyridin-4-yl)methyl)amino)methyl)-9,10-difluoro-2,3-dihydro-7H-[1,4]thiazino[2,3,4-ij]quinolin-7-one], which “Relative mRNA INFβ/GAPDH THP 1” value is on record?
The value was 301.6.

With COc1cc(CN(Cc2cn3c4c(c(F)c(F)cc4c2=O)OCC3)[C@H]2CCCN(c3ccc(NCC4CC4)nc3)C2)ccn1 [Compound 99, (S)-6-(((1-(6-((cyclopropylmethyl)amino)pyridin-3-yl)piperidin-3-yl)((2-methoxypyridin-4-yl)methyl)amino)methyl)-9,10-difluoro-2,3-dihydro-7H-[1,4]oxazino[2,3,4-ij]quinolin-7-one] as the molecule, how does the “Relative mRNA INFβ/GAPDH THP 1” value read?
The value was 368.7.

CCC1COc2c(F)c(F)cc3c(=O)c(CN(Cc4ccnc(OC)c4)[C@H]4CCCN(c5ccc(N)nc5)C4)cn1c23 (stereo partly drawn) [Compound 100, 6-((((S)-1-(6-aminopyridin-3-yl)piperidin-3-yl)((2-methoxypyridin-4-yl)methyl)amino)methyl)-3-ethyl-9,10-difluoro-2,3-dihydro-7H-[1,4]oxazino[2,3,4-ij]quinolin-7-one] was tested. Which “Relative mRNA INFβ/GAPDH THP 1” value did it give?
The value was 581.3.

How did the “Relative mRNA INFβ/GAPDH THP 1” value turn out when Cc1ccc(N2CCC[C@H](N(Cc3ccnc(C)c3)Cc3cn4c5c(c(OCCO)c(F)cc5c3=O)OCC4C)C2)cn1 (stereo partly drawn) [Compound 101, 9-fluoro-10-(2-hydroxyethoxy)-3-methyl-6-((((S)-1-(6-methylpyridin-3-yl)piperidin-3-yl)((2-methylpyridin-4-yl)methyl)amino)methyl)-2,3-dihydro-7H-[1,4]oxazino[2,3,4-ij]quinolin-7-one] was run?
The value was 332.9.

With Cc1ccc(N2CCC[C@H](N(Cc3ccnc(C)c3)Cc3cn4c5c(c(O)c(F)cc5c3=O)OCC4C)C2)cn1 (stereo partly drawn) [Compound 102, 9-fluoro-10-hydroxy-3-methyl-6-((((S)-1-(6-methylpyridin-3-yl)piperidin-3-yl)((2-methylpyridin-4-yl)methyl)amino)methyl)-2,3-dihydro-7H-[1,4]oxazino[2,3,4-ij]quinolin-7-one] as the molecule, how does the “Relative mRNA INFβ/GAPDH THP 1” value read?
The value was 0.9.

How did the “Relative mRNA INFβ/GAPDH THP 1” value turn out when COc1cc(CN(Cc2cn3c4c(c(OC)c(F)cc4c2=O)OCC3C)[C@H]2CCCN(c3ccc(N)nc3)C2)ccn1 (stereo partly drawn) [Compound 103, 6-((((S)-1-(6-aminopyridin-3-yl)piperidin-3-yl)((2-methoxypyridin-4-yl)methyl)amino)methyl)-9-fluoro-10-methoxy-3-methyl-2,3-dihydro-7H-[1,4]oxazino[2,3,4-ij]quinolin-7-one] was run?
The value was 356.0.
